Data on 20 compounds can be found in ChEMBL document CHEMBL4033705, “Screening for bioactive natural products from a 67-compound library of Glycyrrhiza inflata” (Bioorg Med Chem, 2017).

Series [1] has as its target Mushroom tyrosinase (Agaricus bisporus) (UniProt O42713+Q00024+C7FF04+C7FF05). The series can be described thus: Inhibition of mushroom tyrosinase at 10 uM using L-tyrosine as substrate incubated for 15 mins followed by substrate addition relative to control.
In series [2] the target is T1, Tyrosine-protein phosphatase non-receptor type 1 (Homo sapiens) (UniProt P18031).
T1 sequence (whole entry): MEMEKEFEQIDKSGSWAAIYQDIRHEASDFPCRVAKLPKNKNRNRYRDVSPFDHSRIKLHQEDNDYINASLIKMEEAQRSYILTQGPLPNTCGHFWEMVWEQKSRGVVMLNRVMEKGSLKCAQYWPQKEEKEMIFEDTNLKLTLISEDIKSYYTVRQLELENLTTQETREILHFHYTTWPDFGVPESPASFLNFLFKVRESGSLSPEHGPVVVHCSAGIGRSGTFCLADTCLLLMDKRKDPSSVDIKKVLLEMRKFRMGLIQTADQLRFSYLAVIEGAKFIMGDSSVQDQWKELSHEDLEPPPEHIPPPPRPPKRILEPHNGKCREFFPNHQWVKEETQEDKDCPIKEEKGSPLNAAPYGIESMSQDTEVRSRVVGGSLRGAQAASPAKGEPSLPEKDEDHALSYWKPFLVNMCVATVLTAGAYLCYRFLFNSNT
As to the kind of experiment: Inhibition of recombinant human PTP1B using p-nitrophenyl phosphate as substrate at 10 uM after 30 mins relative to control.

Series [3] in a line: Growth inhibition of human LO2 cells at 10 uM after 24 hrs by MTS assay relative to control. The series is classed as cell-based, L02. The conditions noted are these: LO2 cells, read-out: GI. Background: Tetrazolium assays rely on reduction of a dye to a coloured formazan, in cell work by metabolically active cells.
The subject of series [4] is HepG2. The series can be described thus: Growth inhibition of human HepG2 cells at 10 uM after 24 hrs by MTS assay relative to control. The series is classed as functional. Particulars: HepG2, 24 h, read-out: GI.
Series [5] relates to SW480. As to the kind of experiment: Growth inhibition of human SW480 cells at 10 uM after 24 hrs by MTS assay relative to control. The series is classed as functional. The conditions noted are these: SW480, 24 h, read-out: GI.
For series [6], the system named is MCF7. The series can be described thus: Growth inhibition of human MCF7 cells at 10 uM after 24 hrs by MTS assay relative to control. The conditions noted are these: MCF7, 24 h, read-out: GI. The series is classed as functional.
A short description of series [7]: Growth inhibition of human HEK293T cells at 10 uM after 24 hrs by MTS assay relative to control. The series is classed as cell-based, HEK-293T. Particulars: HEK293T cells, read-out: GI.
The species entered for series [8] is Homo sapiens. The series can be described thus: Inhibition of LPS-induced NF-kappaB transcription (unknown origin) expressed in human SW480 cells at 10 uM by luciferase reporter gene assay. The series is classed as cell-based.
Series [9] relates to RAW264.7. The series can be described thus: Antiinflammatory activity in mouse RAW264.7 cells assessed as inhibition of LPS-induced NO production at 10 uM after 24 hrs by Griess reagent based assay relative to control. The series is classed as functional. The conditions noted are these: RAW264.7, 24 h. A general note: Griess reagent forms a coloured azo dye with nitrite.
The test system of series [10] is SW480. The series can be described thus: Cytotoxicity against human SW480 cells assessed as reduction in cell viability after 24 hrs by MTS assay. The series is classed as functional, cell-based. The conditions noted are these: SW480, 24 h.
Series [11] deals with MCF7. The series can be described thus: Cytotoxicity against human MCF7 cells assessed as reduction in cell viability after 24 hrs by MTS assay. The series is classed as functional, cell-based. Particulars: MCF7, 24 h.

`CC1(C)C=Cc2c(cc3occ(-c4ccc(O)cc4)c(=O)c3c2O)O1` [ALPINUMISOFLAVONE]: the inhibition in series [1] turned out to be 2%; in series [2] it was 79%; in series [8], 41%. In addition, the inhibition at 24 h, 10 µM turned out to be 5% in series [3] and 15% in [7]. Also, the inhibition of growth at 10 µM came out at 40% in series [4], 13% in series [5] and 3% in series [6]. Also, the inhibition at 10 µM in [9] is 19%.

Turning to `CC(C)=CCc1cc(-c2coc3cc(O)cc(O)c3c2=O)cc(O)c1O` [GLYCYRRHISOFLAVONE], the inhibition in series [1] came to 8%; in series [2], 52%; in series [8] it was 8%. Also, the inhibition of growth at 10 µM stood at 0% in [4], 18% in series [5] and 15% in [6]. In series [9], the inhibition at 10 µM stood at 3%.

On to `CC(C)=CCc1c(O)ccc2c1O[C@H](c1ccc3c(c1)C=CC(C)(C)O3)CC2=O`, for which the inhibition in [1] came out at 15%; in series [2] it was 50%; in [8] it was 20%. In addition, the inhibition at 24 h, 10 µM in series [3] was determined as 2%; in series [7], 25%. For the same compound, the inhibition of growth at 10 µM worked out at 14% in series [4], 72% in [5] and 75% in [6]. Also, the figures for the IC50 in series [10] and in [11] were 9.84 µM and 12.9 µM, respectively. Also, the inhibition at 10 µM in series [9] was 24%.

Consider `CC(C)=CCc1c(O)ccc(-c2coc3cc(O)c(CC=C(C)C)c(O)c3c2=O)c1O`, for which the results for the inhibition in series [1], in series [2] and in [8] were 2%, 78% and 15%, respectively. Besides, the inhibition of growth at 10 µM is 0% in series [4], 46% in [5] and 4% in series [6]. For the same compound, the inhibition at 10 µM in [9] was determined as 0%.

As for `CC(C)=CCc1c(O)cc(O)c2c(=O)c(-c3ccc(O)cc3)coc12`, the inhibition in series [1] turned out to be 16%; in series [2], 0%; in series [8], 25%. Also, the inhibition of growth at 10 µM worked out at 23% in series [4], 13% in series [5] and 23% in [6]. Besides, the inhibition at 10 µM in series [9] amounted to 18%.

Consider `O=C(/C=C/c1ccc(O)c(O)c1)c1ccc(O)c(O)c1`, for which the inhibition in series [1] came to 16%; in [2] it was 1%; in [8], 13%. The inhibition of growth at 10 µM was 8% in series [4], 10% in series [5] and 5% in series [6]. Further, the inhibition at 10 µM in series [9] came to 1%.

For the compound `COc1cc(O)c(-c2coc3cc(O)ccc3c2=O)c(OC)c1CC=C(C)C`, the values for the inhibition in series [1], in series [2] and in series [8] were 15%, 18% and 3%, respectively. Moreover, the values for the inhibition of growth at 10 µM in series [4], in series [5] and in [6] were 0%, 0% and 33%, respectively. In addition, in series [9], the inhibition at 10 µM was found to be 14%.

Regarding `O=C(/C=C/c1ccc(O)cc1)c1ccc(O)cc1O` [ISOLIQUIRITIGENIN], the figures for the inhibition in [1], in series [2] and in series [8] were 12%, 48% and 6%, respectively. The values for the inhibition of growth at 10 µM in series [4], in [5] and in [6] were 0%, 16% and 0%, respectively. Also, the inhibition at 10 µM in series [9] was found to be 14%.

In the case of `O=C1C[C@@H](c2cc(O)cc(O)c2)Oc2cc(O)ccc21`, the inhibition in series [1] was 12%; in series [2] it was 2%; in series [8], 1%. In addition, the results for the inhibition of growth at 10 µM in series [4], in series [5] and in series [6] were 0%, 4% and 13%, respectively. For the same compound, in [9], the inhibition at 10 µM stood at 15%.

Take `O=C1C[C@@H](c2ccc(O)cc2)Oc2cc(O)ccc21` [LIQUIRTIGENIN]: the results for the inhibition in series [1], in series [2] and in [8] were 2%, 36% and 19%, respectively. The inhibition of growth at 10 µM was determined as 13% in series [4], 9% in series [5] and 27% in series [6]. Also, in series [9], the inhibition at 10 µM turned out to be 0%.

As to `COc1cc([C@H]2COc3cc(O)ccc3C2)ccc1O`, the inhibition in series [1] came out at 6%; in [2] it was 2%; in [8], 0%. Moreover, the figures for the inhibition of growth at 10 µM in [4], in [5] and in series [6] were 3%, 24% and 14%, respectively. For the same compound, the inhibition at 10 µM in series [9] worked out at 23%.

On to `CC(C)=CCc1c(O)cc(O)c2c(=O)c(-c3ccc(O)cc3O)coc12`, for which the inhibition in series [1] turned out to be 17%; in series [2] it was 34%; in series [8], 8%. Moreover, the inhibition of growth at 10 µM turned out to be 5% in series [4], 13% in series [5] and 31% in [6]. In series [9], the inhibition at 10 µM stood at 9%.

As to `CC(C)=CCc1c(O)cc2occ(-c3ccc4c(c3)C=CC(C)(C)O4)c(=O)c2c1O` [ISOCHANDALON], the inhibition in [1] was 3%; in [2], 94%; in [8] it was 3%. Besides, the inhibition of growth at 10 µM is 7% in series [4], 58 to 81% in series [5] and 73% in series [6]. Also, in series [9], the inhibition at 10 µM came out at 0%.

Consider `CC(C)=CCc1c(O)c(CC=C(C)C)c2oc(-c3ccc(O)cc3)cc(=O)c2c1O`, for which the inhibition in [1] turned out to be 0%; in series [2], 47%; in series [8], 34%. Moreover, the values for the inhibition at 24 h, 10 µM in [3] and in [7] were 46% and 20%, respectively. The inhibition of growth at 10 µM is 11% in [4], 61% in [5] and 68% in [6]. In series [11], the IC50 (as a rule, the concentration needed to halve the response being measured) was found to be 12.2 µM. In addition, in [9], the inhibition at 10 µM came out at 9%.

On to `CC(C)=CCc1c(O)ccc(-c2coc3cc(O)cc(O)c3c2=O)c1O`, for which the inhibition in series [1] turned out to be 5%; in series [2], 7%; in series [8] it was 5%. Further, the inhibition of growth at 10 µM was found to be 5% in series [4], 26% in series [5] and 18% in series [6]. For the same compound, the inhibition at 10 µM in series [9] turned out to be 20%.

As to `CC(C)=CCc1c(O)cc2occ(-c3ccc(O)cc3)c(=O)c2c1O` [WIGHTEONE], the inhibition in series [1] came out at 15%; in series [2] it was 19%; in series [8], 11%. Moreover, the inhibition of growth at 10 µM worked out at 6% in series [4], 34% in [5] and 17% in series [6]. In addition, the inhibition at 10 µM in series [9] is 0%.

As to `CC1(C)C=Cc2c(ccc(-c3coc4cc(O)cc(O)c4c3=O)c2O)O1` [LICOISOFLAVONE B], the inhibition is 14% in series [1], 69% in [2] and 4% in series [8]. The inhibition of growth at 10 µM is 13 to 14% in series [4], 13% in [5] and 14% in series [6]. In [9], the inhibition at 10 µM came to 10%.

`CC1(C)C=Cc2cc(-c3coc4cc(O)cc(O)c4c3=O)ccc2O1`: the inhibition in series [1] is 14%; in series [2], 27%; in series [8] it was 27%. Further, the inhibition of growth at 10 µM in series [4] was 11%; in series [5], 13 to 70%; in [6], 2 to 23%. In [9], the inhibition at 10 µM is 10%.

As to `CC1(C)C=Cc2c(O)ccc([C@@H]3COc4cc(O)cc(O)c4C3=O)c2O1`, the values for the inhibition in series [1], in series [2] and in [8] were 9%, 1% and 24%, respectively. Also, the inhibition of growth at 10 µM in series [4] came out at 6%; in series [5], 8%; in series [6], 13%. Moreover, the inhibition at 10 µM in series [9] worked out at 2%.

With `COc1c(/C=C/C(=O)c2ccc(O)cc2)ccc(O)c1CC=C(C)C`, the inhibition was 5% in [1], 20% in series [2] and 9% in series [8]. For the same compound, the inhibition of growth at 10 µM in [4] came out at 22%; in [5] it was 25%; in series [6], 26%. The inhibition at 10 µM in series [9] was 1%.
